Measurements reported in patent EP2753300B1, “COMBINATION OF CARRAGEENAN AND C-GLYCOSIDE AND USES THEREOF” (L'Oréal, priority 2011, dated 2013).

System: épidermes reconstruits d'Episkin
Test: Maturation of the cornified envelope: count of mature envelopes (involucrin immunolabelling / Nile Red) after 7 days of treatment of reconstructed epidermis
Format: cell-based
Settings: 168 h; C-glycoside 2,5% (p/v) alone; 30µl at J7, J9, J10, J13; read-out J14; read-out: augmentation du taux d'enveloppes cornées matures par rapport au témoin eau (Moy)
Description: Les épidermes reconstruits d'Episkin ont été utilisés pour évaluer l'impact de molécules sur la maturation de l'enveloppe cornée.
Les Episkin J7 ont été cultivés avec le carraghénane et les associations carraghénane + C-BETA-D-XYLOPYRANOSIDE-2-HYDROXY-PROPANE (HYDROXYPROPYL TETRAHYDROPYRANTRIOL) pendant 7 jours. Après isolement du stratum, les enveloppes cornées sont extraites.
Trois types d'enveloppes cornées, matures, intermédiaires et immatures sont identifiés et comptées par un logiciel d'analyse d'image développé spécifiquement. […]
Les lames immunomarquées sont visionnées sous microscope (DM6000B Leica) suivant 2 modes d'observation : contraste de phase et fluorescence.
Le contraste de phase fournit une image en niveau de gris nous permettant de visualiser l'ensemble des cellules présentes dans le champ. Le mode fluorescence (jeu de filtercube) est utilisé pour visualiser les fluorochromes fixées à l'échantillon : • Le Nile Red est une sonde fluorescente permettant de localiser les zones hydrophobes plus particulièrement les lipides. […]

CC(O)C[C@@H]1OC[C@@H](O)[C@H](O)[C@H]1O (stereo partly drawn) [C-glycoside, C-β-D-xylopyranoside-2-hydroxy-propane]
activation at 25000 µg/mL: 22%
